Common to all, as to type: functional
The subject of assay [1] is Leishmania donovani. Kind of assay: Antileishmanial activity against Leishmania donovani LCR-L133 promastigotes at 1 […] after 48 hrs relative to control.
In assay [2] the test system is Leishmania donovani. The assay can be described thus: Antileishmanial activity against Leishmania donovani LCR-L133 promastigotes at 100 […] after 24 hrs relative to control.
For assay [3], the system named is Leishmania donovani. The assay can be described thus: Antileishmanial activity against Leishmania donovani LCR-L133 promastigotes at 10 […] after 24 hrs relative to control.
For assay [4], the system named is Leishmania donovani. Kind of assay: Antileishmanial activity against Leishmania donovani LCR-L133 promastigotes at 1 […] after 24 hrs relative to control.
Assay [5] concerns Leishmania donovani. The assay can be described thus: Antileishmanial activity against Leishmania donovani LCR-L133 promastigotes at 100 […] after 48 hrs relative to control.
The test system of assay [6] is Leishmania donovani. The assay can be described thus: Antileishmanial activity against Leishmania donovani LCR-L133 promastigotes at 10 […] after 48 hrs relative to control.
Assay [7] relates to Leishmania donovani. The assay can be described thus: Antileishmanial activity against Leishmania donovani LCR-L133 promastigotes at 100 […] after 72 hrs relative to control.
The test system of assay [8] is Leishmania donovani. The assay can be described thus: Antileishmanial activity against Leishmania donovani LCR-L133 promastigotes at 10 […] after 72 hrs relative to control.
For assay [9], the system named is Leishmania donovani. The assay can be described thus: Antileishmanial activity against Leishmania donovani LCR-L133 promastigotes at 1 […] after 72 hrs relative to control.
The test system of assay [10] is Leishmania donovani. Kind of assay: Antileishmanial activity against Leishmania donovani LCR-L133 amastigotes at 100 ug/ml after 24 hrs relative to control.
In assay [11] the test system is Leishmania donovani. Kind of assay: Antileishmanial activity against Leishmania donovani LCR-L133 amastigotes at 10 ug/ml after 24 hrs relative to control.
Assay [12] deals with Leishmania donovani. The assay can be described thus: Antileishmanial activity against Leishmania donovani LCR-L133 amastigotes at 1 ug/ml after 24 hrs relative to control.
In assay [13] the test system is Leishmania donovani. Kind of assay: Antileishmanial activity against Leishmania donovani LCR-L133 amastigotes at 100 ug/ml after 48 hrs relative to control.
Assay [14] deals with Leishmania donovani. Kind of assay: Antileishmanial activity against Leishmania donovani LCR-L133 amastigotes at 10 ug/ml after 48 hrs relative to control.
Assay [15] relates to Leishmania donovani. The assay can be described thus: Antileishmanial activity against Leishmania donovani LCR-L133 amastigotes at 1 ug/ml after 48 hrs relative to control.
Assay [16] concerns Leishmania donovani. Kind of assay: Antileishmanial activity against Leishmania donovani LCR-L133 amastigotes at 100 ug/ml after 72 hrs relative to control.
Assay [17] concerns Leishmania donovani. Kind of assay: Antileishmanial activity against Leishmania donovani LCR-L133 amastigotes at 10 ug/ml after 72 hrs relative to control.
For assay [18], the system named is Leishmania donovani. Kind of assay: Antileishmanial activity against Leishmania donovani LCR-L133 amastigotes at 1 ug/ml after 72 hrs relative to control.

For `C=C[C@@]1(CO)CC[C@H]2[C@]3(C)CCC[C@](C)(C(=O)OC)[C@H]3CC[C@]2(C)O1`, the Activity turned out to be 0% in the assay with Leishmania donovani [1]; 0% in the assay with Leishmania donovani [2]; 0% in the assay with Leishmania donovani [3]; 0% in the assay on Leishmania donovani [4]; 62% with Leishmania donovani [5]; 0% with Leishmania donovani [6]. Moreover, the Activity was 79% with Leishmania donovani [7]; 0% with Leishmania donovani [8]; 0% in the assay with Leishmania donovani [9]; 47% with Leishmania donovani [10]; 17% in the assay on Leishmania donovani [11]; 0% in the assay on Leishmania donovani [12]. In addition, the Activity in the assay on Leishmania donovani [13] was determined as 58%; in the assay on Leishmania donovani [14], 26%; in the assay with Leishmania donovani [15] it was 12%; in the assay with Leishmania donovani [16], 67%; in the assay on Leishmania donovani [17], 35%; in the assay with Leishmania donovani [18], 13%.

Turning to `C=C[C@]1(C)O[C@@]2(C)CC[C@@H]3C(C)(C)[C@H](O)CC[C@@]3(C)[C@@H]2C[C@@H]1O`, the Activity in the assay on Leishmania donovani [1] came out at 0%; in the assay with Leishmania donovani [2], 0%; with Leishmania donovani [3], 0%; with Leishmania donovani [4], 0%; with Leishmania donovani [5] it was 31%; in the assay with Leishmania donovani [6], 0%. The Activity was 0% in the assay on Leishmania donovani [7]; 0% in the assay with Leishmania donovani [8]; 0% in the assay on Leishmania donovani [9]; 15% in the assay with Leishmania donovani [10]; 0% in the assay with Leishmania donovani [11]; 0% in the assay on Leishmania donovani [12]. Further, the Activity turned out to be 31% in the assay with Leishmania donovani [13]; 6% in the assay with Leishmania donovani [14]; 0% with Leishmania donovani [15]; 35% in the assay on Leishmania donovani [16]; 11% in the assay on Leishmania donovani [17]; 0% in the assay on Leishmania donovani [18].

(Values after ChEMBL document CHEMBL1145677, “In Vitro Action of ent -Manoyl Oxides against Leishmania donovani” (1997).)
